Source: patent publication US10336739B2, “4-hydroxy-3-(heteroaryl)pyridine-2-one APJ agonists” (BRISTOL-MYERS SQUIBB COMPANY, priority 2015, dated 2019)
Where two headings read alike, the source gives them in different places.

Target: human APJ receptor (Homo sapiens (Human), UniProt P35414)
Experiment: Intracellular cAMP accumulation assay (APJ hcAMP, HTRF)
Type: cell-based
Details: HEK293 cells stably expressing human APJ receptor, inhibition of forskolin-mediated cAMP production
Summary of the method: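 HEK293 cells stably expressing human APJ, 5,000 per well, exposed to compound with […] IBMX and 2 μM forskolin for 30 minutes at room temperature. cAMP measured by HTRF after lysis and 60 min detection incubation. EC50 from sigmoidal variable-slope fits of inhibition of forskolin-induced cAMP, quantified against a cAMP standard curve.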

[1] = read-out: hAPJ cAMP EC50 Potency range
[2] = read-out: hAPJ cAMP EC50 (nM) Potency range

Sequence of human APJ receptor (P35414 whole entry): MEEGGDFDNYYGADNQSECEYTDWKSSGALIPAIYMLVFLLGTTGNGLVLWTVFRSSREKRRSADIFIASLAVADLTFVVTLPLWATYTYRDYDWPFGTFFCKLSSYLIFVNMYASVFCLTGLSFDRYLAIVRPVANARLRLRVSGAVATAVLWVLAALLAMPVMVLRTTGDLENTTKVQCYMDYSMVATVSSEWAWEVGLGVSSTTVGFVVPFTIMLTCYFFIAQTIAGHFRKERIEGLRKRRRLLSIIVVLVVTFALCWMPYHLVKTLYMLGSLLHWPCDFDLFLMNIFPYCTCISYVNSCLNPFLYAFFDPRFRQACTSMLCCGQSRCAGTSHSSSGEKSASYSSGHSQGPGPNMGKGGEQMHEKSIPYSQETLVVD

| EC50 [1] [nM] | Compound | other results |
| --- | --- | --- |
| 0.01 to 10 | CCCCc1nc(O)c(-c2nnc(Cc3nc(C4CC4)no3)o2)c(O)c1-c1c(OC)cccc1OC [Example 109, 6-butyl-3-{5-[(3-cyclopropyl-1,2,4-oxadiazol-5-yl)methyl]-1,3,4-oxadiazol-2-yl}-5-(2,6-dimethoxyphenyl) pyridine-2,4-diol] |  |
| 10 to 100 | CCCCc1nc(O)c(-c2nnc(Cc3ccncc3)o2)c(O)c1-c1c(OC)cccc1OC [Example 3, 6-butyl-5-(2,6-dimethoxyphenyl)-3-[5-(pyridin-4-ylmethyl)-1,3,4-oxadiazol-2-yl]pyridine-2,4-diol] |  |
| 10 to 100 | CCCCc1nc(O)c(-c2nnc(COc3ccc(C(F)(F)F)cc3)o2)c(O)c1-c1c(OC)cccc1OC [Example 65, 6-butyl-5-(2,6-dimethoxyphenyl)-3-{5-[4-(trifluoromethyl)phenoxymethyl]-1,3,4-oxadiazol-2-yl}pyridine-2,4-diol] |  |
| 0.01 to 10 | CCCCc1nc(O)c(-c2nnc(Cc3noc4ccccc34)o2)c(O)c1-c1c(CC)cccc1CC [Example 226, 3-[5-(1,2-benzoxazol-3-ylmethyl)-1,3,4-oxadiazol-2-yl]-6-butyl-5-(2,6-diethylphenyl) pyridine-2,4-diol] |  |
| 0.01 to 10 | CCOCc1nc(O)c(-c2nnc(Cc3csc(C)n3)o2)c(O)c1-c1c(OC)cccc1OC [Example 106, 5-(2,6-dimethoxyphenyl)-6-(ethoxymethyl)-3-{5-[(2-methyl-1,3-thiazol-4-yl)methyl]-1,3,4-oxadiazol-2-yl}pyridine-2,4-diol] |  |
| 0.01 to 10 | CCCCc1nc(O)c(-c2nnc(Cc3nc(-c4ccccc4)no3)o2)c(O)c1-c1c(OC)cccc1OC [Example 111, 6-butyl-5-(2,6-dimethoxyphenyl)-3-{5-[(3-phenyl-1,2,4-oxadiazol-5-yl)methyl]-1,3,4-oxadiazol-2-yl}pyridine-2,4-diol] |  |
| 0.01 to 10 | CCCCc1nc(O)c(-c2nnc(CN(C)C(=O)c3ccncc3)o2)c(O)c1-c1c(OC)cccc1OC [Example 159, N-({5-[6-butyl-5-(2,6-dimethoxyphenyl)-2,4-dihydroxypyridin-3-yl]-1,3,4-oxadiazol-2-yl}methyl)-N-methylpyridine-4-carboxamide] |  |
| 0.01 to 10 | CCCCc1nc(O)c(-c2nnc(Cc3ccnc(Cl)c3)o2)c(O)c1-c1c(OC)cccc1OC [Example 59, 6-butyl-3-{5-[(2-chloropyridin-4-yl)methyl]-1,3,4-oxadiazol-2-yl}-5-(2,6-dimethoxyphenyl) pyridine-2,4-diol] |  |
|  | CCCCc1nc(O)c(-c2nnc(CN(C)C(=O)OC(C)(C)C)o2)c(O)c1-c1c(OC)cccc1OC [Example 121, tert-butyl N-({5-[6-butyl-5-(2,6-dimethoxyphenyl)-2,4-dihydroxypyridin-3-yl]-1,3,4-oxadiazol-2-yl}methyl)-N-methylcarbamate] | EC50 (hAPJ cAMP EC50 Potency range (nM)): 10 to 100 nM |
| 0.01 to 10 | CCCCc1nc(O)c(-c2nnc(C3NCCc4ccccc43)o2)c(O)c1-c1c(OC)cccc1OC (stereo not shown) [Example 61, 6-butyl-5-(2,6-dimethoxyphenyl)-3-[5-(1,2,3,4-tetra-hydroisoquinolin-1-yl)-1,3,4-oxadiazol-2-yl]pyridine-2,4-diol] |  |
| 10 to 100 | CCCCc1nc(O)c(-c2nnc(Cc3ccc(F)c(F)c3)o2)c(O)c1-c1cccc(OC)c1 [Example 139, 6-butyl-3-{5-[(3,4-difluorophenyl)methyl]-1,3,4-oxadiazol-2-yl}-5-(3-methoxyphenyl) pyridine-2,4-diol] |  |
| 0.01 to 10 | CCCCc1nc(O)c(-c2nnc(Cc3n[nH]c4ccccc34)o2)c(O)c1-c1c(OC)cccc1OC [Example 43, 6-butyl-5-(2,6-dimethoxyphenyl)-3-[5-(1H-indazol-3-ylmethyl)-1,3,4-oxadiazol-2-yl]pyridine-2,4-diol] |  |
|  | CCOCc1nc(O)c(-c2nnc(Cc3noc4ccccc34)o2)c(O)c1-c1ccccc1OC [Example 248, 3-{5-[(1,2-benzoxazol-3-yl)methyl]-1,3,4-oxadiazol-2-yl}-6-(ethoxymethyl)-5-(2-methoxyphenyl) pyridine-2,4-diol] | EC50 [2]: 0.01 to 10 nM |
| 100 to 300 | CCCCc1nc(O)c(-c2nnc(Cc3cnn(C)c3)o2)c(O)c1-c1c(OC)cccc1OC [Example 102, 6-butyl-5-(2,6-dimethoxyphenyl)-3-{5-[(1-methyl-1H-pyrazol-4-yl)methyl]-1,3,4-oxadiazol-2-yl}pyridine-2,4-diol] |  |
| 0.01 to 10 | CCCCc1nc(O)c(-c2nnc(Cc3noc4ccccc34)o2)c(O)c1-c1c(OC)cccc1OC [Example 20, 3-[5-(1,2-benzoxazol-3-ylmethyl)-1,3,4-oxadiazol-2-yl]-6-butyl-5-(2,6-dimethoxyphenyl) pyridine-2,4-diol] |  |
| 0.01 to 10 | CCCCc1nc(O)c(-c2nnc(Cc3cccc(F)c3)o2)c(O)c1-c1c(OC)cccc1OC [Example 99, 6-butyl-5-(2,6-dimethoxyphenyl)-3-{5-[(3-fluorophenyl)methyl]-1,3,4-oxadiazol-2-yl}pyridine-2,4-diol] |  |

| EC50 [1] [nM] | Compound | other results |
| --- | --- | --- |
| 0.01 to 10 | CCCCc1nc(O)c(-c2nnc(CN(C)C(=O)c3ccccc3Cl)o2)c(O)c1-c1c(OC)cccc1OC [Example 161, N-({5-[6-butyl-5-(2,6-dimethoxyphenyl)-2,4-dihydroxypyridin-3-yl]-1,3,4-oxadiazol-2-yl}methyl)-2-chloro-N-methylbenzamide] |  |
| 0.01 to 10 | CCOCc1nc(O)c(-c2nnc(Cc3n[nH]c4ccccc34)o2)c(O)c1-c1c(OC)cccc1OC [Example 132, 5-(2,6-dimethoxyphenyl)-6-(ethoxymethyl)-3-[5-(1H-indazol-3-ylmethyl)-1,3,4-oxadiazol-2-yl]pyridine-2,4-diol] |  |
| 10 to 100 | CCCCc1nc(O)c(-c2nnc(Cc3ccc(Cl)cc3)o2)c(O)c1-c1c(Cl)cccc1Cl [Example 87, 6-butyl-3-{5-[(4-chlorophenyl)methyl]-1,3,4-oxadiazol-2-yl}-5-(2,6-dichlorophenyl) pyridine-2,4-diol] |  |
| 10 to 100 | CCCCc1nc(O)c(-c2nnc(Cc3ccc(F)c(F)c3)o2)c(O)c1-c1cccc(C(=O)NC(C)C)c1 [Example 147, 3-(2-butyl-5-{5-[(3,4-difluorophenyl)methyl]-1,3,4-oxadiazol-2-yl}-4,6-dihydroxypyridin-3-yl)-N-(propan-2-yl)benzamide] |  |
| 100 to 300 | CCCCc1nc(O)c(-c2nnc(C3CC3)o2)c(O)c1-c1c(OC)cccc1OC [Example 14, 6-butyl-3-(5-cyclopropyl-1,3,4-oxadiazol-2-yl)-5-(2,6-dimethoxyphenyl) pyridine-2,4-diol] |  |
| 0.01 to 10 | CCCCc1[nH]c(=O)c(-c2nnc(Cc3csc(C)n3)o2)c(O)c1-c1cccc(OC)c1 [Example 151, 6-butyl-4-hydroxy-5-(3-methoxyphenyl)-3-{5-[(2-methyl-1,3-thiazol-4-yl)methyl]-1,3,4-oxadiazol-2-yl}-1,2-dihydropyridin-2-one] |  |
| 0.01 to 10 | CCCCc1nc(O)c(-c2nnc(CNC(=O)CC(C)C)o2)c(O)c1-c1c(OC)cccc1OC [Example 174, N-({5-[6-butyl-5-(2,6-dimethoxyphenyl)-2,4-dihydroxypyridin-3-yl]-1,3,4-oxadiazol-2-yl}methyl)-3-methylbutanamide] |  |
| 10 to 100 | CCCCc1nc(O)c(-c2nnc(CC(N)=O)o2)c(O)c1-c1c(OC)cccc1OC [Example 180, 2-{5-[6-butyl-5-(2,6-dimethoxyphenyl)-2,4-dihydroxypyridin-3-yl]-1,3,4-oxadiazol-2-yl}acetamide] |  |
|  | CCOCc1nc(O)c(-c2nnc(Cc3ccc(Cl)cn3)o2)c(O)c1-c1c(O)cccc1OC [Example 275, 3-{5-[(5-chloropyridin-2-yl)methyl]-1,3,4-oxadiazol-2-yl}-6-(ethoxymethyl)-5-(2-hydroxy-6-methoxyphenyl) pyridine-2,4-diol] | EC50 [2]: 10 to 100 nM |
| 0.01 to 10 | CCOCc1nc(O)c(-c2nnc(CNC(=O)c3ccccc3)o2)c(O)c1-c1c(OC)cccc1OC [Example 173, N-({5-[5-(2,6-dimethoxyphenyl)-6-(ethoxymethyl)-2,4-dihydroxypyridin-3-yl]-1,3,4-oxadiazol-2-yl}methyl) benzamide] |  |
| 10 to 100 | CCCCc1nc(O)c(-c2nnc(C(OC)c3ccccc3)o2)c(O)c1-c1c(OC)cccc1OC (stereo not shown) [Example 45, 6-butyl-5-(2,6-dimethoxyphenyl)-3-{5-[methoxy(phenyl)methyl]-1,3,4-oxadiazol-2-yl}pyridine-2,4-diol] |  |
| 0.01 to 10 | CCCCc1nc(O)c(-c2nnc(Cc3csc(C)n3)o2)c(O)c1-c1c(OC)cccc1OC [Example 79, 6-butyl-5-(2,6-dimethoxyphenyl)-3-{5-[(2-methyl-1,3-thiazol-4-yl)methyl]-1,3,4-oxadiazol-2-yl}pyridine-2,4-diol] |  |
| 0.01 to 10 | CCCCc1nc(O)c(-c2nnc(Cc3ccc(C(F)(F)F)cc3)o2)c(O)c1-c1c(OC)cccc1OC [Example 80, 6-butyl-5-(2,6-dimethoxyphenyl)-3-(5-{[4-(trifluoromethyl)phenyl]methyl}-1,3,4-oxadiazol-2-yl)pyridine-2,4-diol] |  |
| 0.01 to 10 | CCCCc1nc(O)c(-c2nnc(CNC(=O)c3ccccc3)o2)c(O)c1-c1c(OC)cccc1OC [Example 171, N-({5-[6-butyl-5-(2,6-dimethoxyphenyl)-2,4-dihydroxypyridin-3-yl]-1,3,4-oxadiazol-2-yl}methyl) benzamide] |  |
|  | CCOCc1nc(O)c(-c2nnc(CNc3ccccc3)o2)c(O)c1-c1c(OC)cccc1OC [Example 243, 5-(2,6-dimethoxyphenyl)-6-(ethoxymethyl)-3-{5-[(phenylamino)methyl]-1,3,4-oxadiazol-2-yl}pyridine-2,4-diol] | EC50 [2]: 10 to 100 nM |
